{
  "source": "patent US20130115622A1",
  "about": "“PHARMACEUTICAL COMPOSITION FOR PREVENTION AND TREATMENT OF AMYOTROPHIC LATERAL SCLEROSIS” (KYOTO UNIVERSITY, priority 2009, published 2013)",
  "test_system": "SOD1",
  "assay": "Analysis of SOD1 in iPS cell-derived astrocytes (Western blotting)",
  "assay_type": "cell-based, human",
  "settings": "astrocytes differentiated from ALS patient iPS cells (SOD1 L106V); 5 nM, 50 nM, 500 nM and 5 μM; 48 hours incubation; Western blotting vs vehicle 0.5% DMSO",
  "protocol": "The iPS cell-derived astrocytes were seeded to a 6-well plate at a density of 250,000 cells/well. After a vehicle [0.5% dimethylsulfoxide (DMSO)], cycloheximide at a final concentration of 5 μg/ml, and Atorvastatin Calcium Salt (Toronto Research Chemicals Inc.) at various final concentrations (5 nM, 50 nM, 500 nM and 5 μM) were added, the plate was incubated for 48 hours. Subsequently, the cells were recovered, and lysed using a 20 mM Hepes, pH 7.4, containing 1% triton X-100, 10% glycerol, 5 mM EDTA, 120 mM NaCl and protease inhibitor cocktail (Complete; Roche), on ice for 30 minutes. The cell lysate was centrifuged at 15,000 rpm, 4° C. for 30 minutes, and the supernatant was recovered. Western blotting was performed using this cytolysis supernatant. Specifically, 20 μg aliquot of the protein was separated by SDS-PAGE (4-12% polyacrylamide gels), transferred to a PVDF membrane, and incubated with an anti-SOD1 antibody (1:2000 dilution) (Stressgen Company) or an anti-β-actin antibody (1:5000 dilution) (Sigma-Aldrich Company). After the incubation, the amount expressed was detected by ECL (Enhanced ChemiLuminescence) using an HRP-linked anti-rabbit IgG antibody (1:5000; GE healthcare) and an HRP-linked anti-mouse IgG antibody (1:5000; GE healthcare). […] Meanwhile, when the vehicle DMSO alone was added to the human iPS cell 253G4 described by Nakagawa M et al. in Nat. Biotechnol. […]",
  "note": "Structures can show the parent of a compound that is named as a salt.",
  "data": [
    {"smiles": "CC(C)c1c(C(=O)Nc2ccccc2)c(-c2ccccc2)c(-c2ccc(F)cc2)n1CC[C@H](O)C[C@@H](O)CC(=O)O", "note": "[Atorvastatin Calcium Salt, (3R,5S)-7-[2-(4-fluorophenyl)-5-(1-methylethyl)-3-phenyl-4-phenylaminocarbonyl-1H-pyrrol-1-yl]-3,5-dihydroxyheptanoic acid]", "values": [
      {"measurement": "expression of SOD1 (amount of SOD1 protein)", "result": "a reduction in the expression of SOD1 was observed"}
    ]}
  ]
}
